According to ChEMBL document CHEMBL3734705, “Synthesis and in vitro cytotoxicity of novel C-12 substituted-14-deoxy-andrographolide derivatives as potent anti-cancer agents” (2015):

Legend:
[1] = test system: NCI-H460; assay: Cytotoxicity against human NCI-H460 cells assessed as growth level at 10 uM after 48 hrs by SRB assay; type: functional
[2] = Cytotoxicity against human HCT116 cells assessed as growth level at 10 uM after 48 hrs by SRB assay; type: functional, HCT-116
[3] = test system: KM12; assay: Cytotoxicity against human KM12 cells assessed as growth level at 10 uM after 48 hrs by SRB assay; type: functional
[4] = Cytotoxicity against human SW620 cells assessed as growth level at 10 uM after 48 hrs by SRB assay; type: functional, SW-620
[5] = Cytotoxicity against human SNB19 cells assessed as growth level at 10 uM after 48 hrs by SRB assay; type: functional, SNB-19
[6] = test system: SK-MEL-28; assay: Cytotoxicity against human SK-MEL-28 cells assessed as growth level at 10 uM after 48 hrs by SRB assay; type: functional
[7] = Cytotoxicity against human UACC257 cells assessed as growth level at 10 uM after 48 hrs by SRB assay; type: functional, UACC-257
[8] = Cytotoxicity against human SKOV3 cells assessed as growth level at 10 uM after 48 hrs by SRB assay; type: functional, SK-OV-3
[9] = Cytotoxicity against human UO31 cells assessed as growth level at 10 uM after 48 hrs by SRB assay; type: functional, UO-31
[10] = test system: MCF7; assay: Cytotoxicity against human MCF7 cells assessed as growth level at 10 uM after 48 hrs by SRB assay; type: functional
[11] = Cytotoxicity against human Hs578T cells assessed as growth level at 10 uM after 48 hrs by SRB assay; type: functional, Hs-578T
[12] = test system: T47D; assay: Cytotoxicity against human T47D cells assessed as growth level at 10 uM after 48 hrs by SRB assay; type: functional
[13] = test system: MDA-MB-468; assay: Cytotoxicity against human MDA-MB-468 cells assessed as growth level at 10 uM after 48 hrs by SRB assay; type: functional
[14] = Cytotoxicity against human HL-60(TB) cells assessed as growth inhibition at 10 uM after 48 hrs by SRB assay; type: functional; conditions: HL-60, 48 h, read-out: GI
[15] = Cytotoxicity against human MOLT4 cells assessed as growth inhibition at 10 uM after 48 hrs by SRB assay; type: functional; conditions: MOLT-4, 48 h, read-out: GI
[16] = Cytotoxicity against human HOP92 cells assessed as growth inhibition at 10 uM after 48 hrs by SRB assay; type: functional; conditions: HOP-92, 48 h, read-out: GI
[17] = test system: NCI-H23; assay: Cytotoxicity against human NCI-H23 cells assessed as growth inhibition at 10 uM after 48 hrs by SRB assay; type: functional; conditions: NCI-H23, 48 h, read-out: GI
[18] = test system: NCI-H322M; assay: Cytotoxicity against human NCI-H322M cells assessed as growth inhibition at 10 uM after 48 hrs by SRB assay; type: functional; conditions: read-out: GI
[19] = Cytotoxicity against human COLO205 cells assessed as growth inhibition at 10 uM after 48 hrs by SRB assay; type: functional; conditions: COLO 205, 48 h, read-out: GI
[20] = Cytotoxicity against human SNB19 cells assessed as growth inhibition at 10 uM after 48 hrs by SRB assay; type: functional; conditions: SNB-19, 48 h, read-out: GI
[21] = Cytotoxicity against human SNB75 cells assessed as growth inhibition at 10 uM after 48 hrs by SRB assay; type: functional; conditions: SNB-75, 48 h, read-out: GI
[22] = Cytotoxicity against human LOXIMVI cells assessed as growth inhibition at 10 uM after 48 hrs by SRB assay; type: functional; conditions: LOX IMVI, read-out: GI
[23] = Cytotoxicity against human OVCAR8 cells assessed as growth inhibition at 10 uM after 48 hrs by SRB assay; type: functional; conditions: OVCAR-8, 48 h, read-out: GI
[24] = Cytotoxicity against human Caki1 cells assessed as growth inhibition at 10 uM after 48 hrs by SRB assay; type: functional; conditions: CAKI-1, 48 h, read-out: GI
[25] = Cytotoxicity against human RXF393 cells assessed as growth inhibition at 10 uM after 48 hrs by SRB assay; type: functional; conditions: RXF 393, 48 h, read-out: GI
[26] = Cytotoxicity against human TK10 cells assessed as growth inhibition at 10 uM after 48 hrs by SRB assay; type: functional; conditions: TK-10, 48 h, read-out: GI
[27] = Cytotoxicity against human BT549 cells assessed as growth inhibition at 10 uM after 48 hrs by SRB assay; type: functional; conditions: BT-549, 48 h, read-out: GI
[28] = test system: K562; assay: Cytotoxicity against human K562 cells assessed as growth level at 10 uM after 48 hrs by SRB assay; type: functional

C=C1CC[C@@H]2[C@](C)(COC(C)=O)[C@H](OC(C)=O)CC[C@@]2(C)[C@@H]1CC(NCc1cccc(Cl)c1)C1=CCOC1=O (mixture of isomers) showed an Activity [1] of 34.79%, an Activity [2] of 35.94% and an Activity [3] of 46.76%. For the same molecule, the Activity [4] was 38.27%, the Activity [5] was 55.56% and the Activity [6] was 76.6%. For the same molecule, the Activity [7] was 25.21%, the Activity [8] was 73.11% and the Activity [9] was 46.94%. It also gave an Activity [10] of 42.95%, an Activity [11] of 94.35% and an Activity [12] of 50.73%. It also gave an Activity [13] of 25.62%, an inhibition of growth at 10 µM [14] of 78.4% and an inhibition of growth at 10 µM [15] of 78.1%. It also gave an inhibition of growth at 10 µM [16] of 33.7%, an inhibition of growth at 10 µM [17] of 47.3% and an inhibition of growth at 10 µM [18] of 24.6%. For the same molecule, the inhibition of growth at 10 µM [19] was 63.2%, the inhibition of growth at 10 µM [20] was 44.4% and the inhibition of growth at 10 µM [21] was 14.1%. The inhibition of growth at 10 µM [22] was 87.3%, the inhibition of growth at 10 µM [23] was 57.3% and the inhibition of growth at 10 µM [24] was 51.7%. For the same molecule, the inhibition of growth at 10 µM [25] was 49.5%, the inhibition of growth at 10 µM [26] was 36.7% and the inhibition of growth at 10 µM [27] was 50.3%. The Activity [28] was 18.48%.

For C=C1CC[C@@H]2[C@](C)(COC(C)=O)[C@H](OC(C)=O)CC[C@@]2(C)[C@@H]1CC(NCc1ccccc1)C1=CCOC1=O (mixture of isomers), the Activity [1] was 48.43%, the Activity [2] was 42.32% and the Activity [3] was 39.08%. It also gave an Activity [4] of 47.31%, an Activity [5] of 68.18% and an Activity [6] of 68.59%. For the same molecule, the Activity [7] was 32.81%, the Activity [8] was 79.25% and the Activity [9] was 29.11%. The Activity [10] was 29.82%, the Activity [11] was 86.43% and the Activity [12] was 14.23%. For the same molecule, the Activity [13] was 22.86%, the inhibition of growth at 10 µM [14] was 9.93% and the inhibition of growth at 10 µM [15] was 3.86%. The inhibition of growth at 10 µM [16] was 58.3%, the inhibition of growth at 10 µM [17] was 42.6% and the inhibition of growth at 10 µM [18] was 23%. It also gave an inhibition of growth at 10 µM [19] of 54.4%, an inhibition of growth at 10 µM [20] of 31.8% and an inhibition of growth at 10 µM [21] of 23.1%. It also gave an inhibition of growth at 10 µM [22] of 55.4%, an inhibition of growth at 10 µM [23] of 71.8% and an inhibition of growth at 10 µM [24] of 50.4%. The inhibition of growth at 10 µM [25] was 25.7%, the inhibition of growth at 10 µM [27] was 71.9% and the Activity [28] was 24.65%.
